Results published in patent US20240199676A1, “ANTIVIRAL COMPOUNDS AND METHODS OF MAKING AND USING THE SAME” (Gilead Sciences, Inc., priority 2022, published 2024).

Assay: GI S9 stability (Ex. Z), dog intestinal S9
Assay type: in vitro ADME
Details: pooled intestinal S9 fractions; dog intestinal S9, 1.0 mg/mL protein, 2 μM substrate, pH 7.4; read-out: GIS9 DOG T½ (per Ex. Z)
Description: Example Z: GI S9 stability data:
Stock solutions of test compounds in dimethyl sulfoxide (DMSO) having a final concentration of 10 mM were prepared and used in all experiments. Sekisui XenoTech (Kansas City, KS) provided pooled intestinal S9 fractions. All other chemicals were purchased from Sigma-Aldrich (St. Louis, MO) or VWR (West Chester, PA). Internal Standard/Quench (IS/Q) used to stop reactions was 100 nM labetalol in (by volume) methanol (10%) and acetonitrile (90%).
Stability in Intestinal S9 Fractions: Duplicate aliquots of test compound or positive control substrate were added to S9 stock diluted with phosphate buffered saline (137 mM NaCl, 2.7 mM KCl, 10 mM phosphate buffer), pH 7.4, to obtain a protein concentration of 1.0 mg/mL. The metabolic reactions were initiated by the addition of the substrates to the S9 reaction mixture to a final concentration of 2 μM. At 0, 10, 20, 30, 60 and 120 min, 25 μL aliquots of the reaction mixture were transferred to plates containing 225 μl of IS/Q solution. After quenching, the plates were centrifuged at 3000×g for 30 minutes. 150 μL aliquots of each supernatant were dried down then reconstituted with 300 μL water. Aliquots (10 μL) of the prepared samples were analyzed on a Thermo Q-Exactive mass spectrometer as described below.
Liquid Chromatography—Mass Spectrometry: Quantification of test compounds and control substrate was performed by analyte/internal standard peak area ratio (PAR) values measured on a Thermo Q-Exactive mass spectrometer coupled to a Dionex UltiMate 3000 HPLC with a Leap Technologies HTC PAL autosampler. The column used for analysis was a Waters Acquity BEH C18 (1.7 μm particle size, 2.1×50 mm). Mobile phase A consisted of 0.1% (v/v) formic acid in water. Mobile phase B consisted of 0.1% (v/v) formic acid in acetonitrile. Elution of analytes was achieved by a series of linear gradients varying the proportions of A and B. The mass spectrometer was calibrated on a weekly basis and mass tolerance of 5 ppm was used.
Metabolic stabilities in S9 fractions were determined by measuring the rates of disappearance of test compound and positive control substrate.
Data (% of substrate remaining) were plotted on a semi-log scale and fitted using an exponential decline model:
Where Ct—% of substrate remaining at time=t; C0—% of substrate remaining at time=0; t—time; T½—half-life The Half-life (T½) is determined by the following equation: […]
Assuming a first-order reaction, the slope (k) is extrapolated from the aforementioned plotted data.
With `N#C[C@]1(COC(=O)C2CCCCC2)O[C@@H](c2ccc3c(N)ncnn23)[C@H](O)[C@@H]1O` [Compound 19, ((2R,3S,4R,5S)-5-(4-aminopyrrolo[2,1-f][1,2,4]triazin-7-yl)-2-cyano-3,4-dihydroxytetrahydrofuran-2-yl)methyl cyclohexanecarboxylate] the half-life at 2 μM was 0.8 h. For `N#C[C@]1(COC(=O)C2CCC2)O[C@@H](c2ccc3c(N)ncnn23)[C@H](O)[C@@H]1O` [Compound 8, ((2R,3S,4R,5S)-5-(4-aminopyrrolo[2,1-f][1,2,4]triazin-7-yl)-2-cyano-3,4-dihydroxytetrahydrofuran-2-yl)methyl cyclobutanecarboxylate], the half-life at 2 μM was 0.167 h. Compound `CC(C)[C@H](N)C(=O)OC[C@@]1(C#N)O[C@@H](c2ccc3c(N)ncnn23)[C@H](O)[C@@H]1O` [Compound 12, ((2R,3S,4R,5S)-5-(4-aminopyrrolo[2,1-f][1,2,4]triazin-7-yl)-2-cyano-3,4-dihydroxytetrahydrofuran-2-yl)methyl L-valinate] has a half-life at 2 μM of 0.0833 h. Compound `N#C[C@]1(COC(=O)CC2CCC2)O[C@@H](c2ccc3c(N)ncnn23)[C@H](O)[C@@H]1O` [Compound 16, ((2R,3S,4R,5S)-5-(4-aminopyrrolo[2,1-f][1,2,4]triazin-7-yl)-2-cyano-3,4-dihydroxytetrahydrofuran-2-yl)methyl 2-cyclobutylacetate] has a half-life at 2 μM of 1.48 h. With `CCCC(=O)OC[C@@]1(C#N)O[C@@H](c2ccc3c(N)ncnn23)[C@H](O)[C@@H]1O` [Compound 6, ((2R,3S,4R,5S)-5-(4-aminopyrrolo[2,1-f][1,2,4]triazin-7-yl)-2-cyano-3,4-dihydroxytetrahydrofuran-2-yl)methyl butyrate] the half-life at 2 μM was 0.633 h. Compound `N#C[C@]1(COC(=O)C2CCCC2)O[C@@H](c2ccc3c(N)ncnn23)[C@H](O)[C@@H]1O` [Compound 18, ((2R,3S,4R,5S)-5-(4-aminopyrrolo[2,1-f][1,2,4]triazin-7-yl)-2-cyano-3,4-dihydroxytetrahydrofuran-2-yl)methyl cyclopentanecarboxylate] has a half-life at 2 μM of 0.433 h. With `N#C[C@]1(COC(=O)c2ccccc2)O[C@@H](c2ccc3c(N)ncnn23)[C@H](O)[C@@H]1O` [Compound 2, ((2R,3S,4R,5S)-5-(4-aminopyrrolo[2,1-f][1,2,4]triazin-7-yl)-2-cyano-3,4-dihydroxytetrahydrofuran-2-yl)methyl benzoate] the half-life at 2 μM was 13.2 h. Work on `CC1(C)CC(C(=O)OC[C@@]2(C#N)O[C@@H](c3ccc4c(N)ncnn34)[C@H](O)[C@@H]2O)C1` [Compound 17, ((2R,3S,4R,5S)-5-(4-aminopyrrolo[2,1-f][1,2,4]triazin-7-yl)-2-cyano-3,4-dihydroxytetrahydrofuran-2-yl)methyl 3,3-dimethylcyclobutane-1-carboxylate] yielded a half-life at 2 μM of 0.8 h. Work on `CC(C)(C)C(=O)OC[C@@]1(C#N)O[C@@H](c2ccc3c(N)ncnn23)[C@H](O)[C@@H]1O` [Compound 10, ((2R,3S,4R,5S)-5-(4-aminopyrrolo[2,1-f][1,2,4]triazin-7-yl)-2-cyano-3,4-dihydroxytetrahydrofuran-2-yl)methyl pivalate] yielded a half-life at 2 μM of 4.48 h. Compound `Cc1ccc(C(=O)OC[C@@]2(C#N)O[C@@H](c3ccc4c(N)ncnn34)[C@H](O)[C@@H]2O)cc1` [Compound 14, ((2R,3S,4R,5S)-5-(4-aminopyrrolo[2,1-f][1,2,4]triazin-7-yl)-2-cyano-3,4-dihydroxytetrahydrofuran-2-yl)methyl 4-methylbenzoate] has a half-life at 2 μM of 7.1 h. `N#C[C@]1(COC(=O)C2CC2)O[C@@H](c2ccc3c(N)ncnn23)[C@H](O)[C@@H]1O` [Compound 7, ((2R,3S,4R,5S)-5-(4-aminopyrrolo[2,1-f][1,2,4]triazin-7-yl)-2-cyano-3,4-dihydroxytetrahydrofuran-2-yl)methyl cyclopropanecarboxylate] gave a half-life at 2 μM of 10.6 h. Work on `CCC(CC)C(=O)OC[C@@]1(C#N)O[C@@H](c2ccc3c(N)ncnn23)[C@H](O)[C@@H]1O` [Compound 9, ((2R,3S,4R,5S)-5-(4-aminopyrrolo[2,1-f][1,2,4]triazin-7-yl)-2-cyano-3,4-dihydroxytetrahydrofuran-2-yl)methyl 2-ethylbutanoate] yielded a half-life at 2 μM of 8.5 h. For `CC(C)(C)CC(=O)OC[C@@]1(C#N)O[C@@H](c2ccc3c(N)ncnn23)[C@H](O)[C@@H]1O` [Compound 13, ((2R,3S,4R,5S)-5-(4-aminopyrrolo[2,1-f][1,2,4]triazin-7-yl)-2-cyano-3,4-dihydroxytetrahydrofuran-2-yl)methyl 3,3-dimethylbutanoate], the half-life at 2 μM was 12.6 h. Compound `CC(=O)OC[C@@]1(C#N)O[C@@H](c2ccc3c(N)ncnn23)[C@H](O)[C@@H]1O` [Compound 4, ((2R,3S,4R,5S)-5-(4-aminopyrrolo[2,1-f][1,2,4]triazin-7-yl)-2-cyano-3,4-dihydroxytetrahydrofuran-2-yl)methyl acetate] has a half-life at 2 μM of 0.683 h. For `CC1(C(=O)OC[C@@]2(C#N)O[C@@H](c3ccc4c(N)ncnn34)[C@H](O)[C@@H]2O)CC1` [Compound 15, ((2R,3S,4R,5S)-5-(4-aminopyrrolo[2,1-f][1,2,4]triazin-7-yl)-2-cyano-3,4-dihydroxytetrahydrofuran-2-yl)methyl 1-methylcyclopropane-1-carboxylate], the half-life at 2 μM was 13.2 h. `CCC(CC)C(=O)Nc1ncnn2c([C@@H]3O[C@](C#N)(COC(=O)C(CC)CC)[C@@H](O)[C@H]3O)ccc12` [Compound 11, ((2R,3S,4R,5S)-2-cyano-5-(4-(2-ethylbutanamido)pyrrolo[2,1-f][1,2,4]triazin-7-yl)-3,4-dihydroxytetrahydrofuran-2-yl)methyl 2-ethylbutanoate] gave a half-life at 2 μM of 1.58 h. `CC(C)CC(=O)OC[C@@]1(C#N)O[C@@H](c2ccc3c(N)ncnn23)[C@H](O)[C@@H]1O` [Compound 3, ((2R,3S,4R,5S)-5-(4-aminopyrrolo[2,1-f][1,2,4]triazin-7-yl)-2-cyano-3,4-dihydroxytetrahydrofuran-2-yl)methyl 3-methylbutanoate] showed a half-life at 2 μM of 8.28 h. Compound `CCC(=O)OC[C@@]1(C#N)O[C@@H](c2ccc3c(N)ncnn23)[C@H](O)[C@@H]1O` [Compound 5, ((2R,3S,4R,5S)-5-(4-aminopyrrolo[2,1-f][1,2,4]triazin-7-yl)-2-cyano-3,4-dihydroxytetrahydrofuran-2-yl)methyl propionate] has a half-life at 2 μM of 1.9 h. Work on `CC(C)C(=O)OC[C@@]1(C#N)O[C@@H](c2ccc3c(N)ncnn23)[C@H](OC(=O)C(C)C)[C@@H]1OC(=O)C(C)C` [Compound 20, (2R,3S,4S,5S)-5-(4-aminopyrrolo[2,1-f][1,2,4]triazin-7-yl)-2-cyano-2-((isobutyryloxy)methyl)tetrahydrofuran-3,4-diyl bis(2-methylpropanoate)] yielded a half-life at 2 μM of 0.05 h.
